According to PubChem BioAssay (NCI):
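Assay format: 96-well plates, 48-hour exposure. TGI: concentration producing complete growth inhibition.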

Assays:
Assay in all cases: DTP human tumour cell line panel, 48 h
786-0 renal = system: 786-0 renal
A498 renal = system: A498 renal
A549 NSCLC = system: A549 NSCLC
ACHN renal = system: ACHN renal
CAKI-1 renal = system: CAKI-1 renal
CCRF-CEM leukemia = system: CCRF-CEM leukemia
COLO 205 colon = system: COLO 205 colon
DMS 114 small cell lung = system: DMS 114 small cell lung
DMS 273 small cell lung = system: DMS 273 small cell lung
EKVX NSCLC = system: EKVX NSCLC
HCC-2998 colon = system: HCC-2998 colon
HCT-116 colon = system: HCT-116 colon
HCT-15 colon = system: HCT-15 colon
HOP-18 NSCLC = system: HOP-18 NSCLC
HOP-62 NSCLC = system: HOP-62 NSCLC
HOP-92 NSCLC = system: HOP-92 NSCLC
HT29 colon = system: HT29 colon
IGROV1 ovarian = system: IGROV1 ovarian
K-562 leukemia = system: K-562 leukemia
KM20L2 colon = system: KM20L2 colon
M19-MEL melanoma = system: M19-MEL melanoma
MALME-3M melanoma = system: MALME-3M melanoma
MOLT-4 leukemia = system: MOLT-4 leukemia
OVCAR-3 ovarian = system: OVCAR-3 ovarian
OVCAR-8 ovarian = system: OVCAR-8 ovarian
RPMI-8226 leukemia = system: RPMI-8226 leukemia
SF-268 CNS = system: SF-268 CNS
SF-539 CNS = system: SF-539 CNS
SK-MEL-28 melanoma = system: SK-MEL-28 melanoma
SK-MEL-5 melanoma = system: SK-MEL-5 melanoma
SN12C renal = system: SN12C renal
SNB-19 CNS = system: SNB-19 CNS
SNB-75 CNS = system: SNB-75 CNS
SNB-78 CNS = system: SNB-78 CNS
SW-620 colon = system: SW-620 colon
U251 CNS = system: U251 CNS
UACC-62 melanoma = system: UACC-62 melanoma
XF 498 CNS = system: XF 498 CNS

Measured: TGI

O=C(Nc1ccccc1)c1cccc([N+](=O)[O-])c1
> 100 µM: 786-0 renal | A498 renal | A549 NSCLC | ACHN renal | CAKI-1 renal | CCRF-CEM leukemia | COLO 205 colon | DMS 114 small cell lung | DMS 273 small cell lung | EKVX NSCLC | HCC-2998 colon | HCT-116 colon | HCT-15 colon | HOP-18 NSCLC | HOP-62 NSCLC | HOP-92 NSCLC | HT29 colon | IGROV1 ovarian | K-562 leukemia | KM20L2 colon | M19-MEL melanoma | MALME-3M melanoma | MOLT-4 leukemia | OVCAR-3 ovarian | OVCAR-8 ovarian | RPMI-8226 leukemia | SF-268 CNS | SF-539 CNS | SK-MEL-28 melanoma | SK-MEL-5 melanoma | SN12C renal | SNB-19 CNS | SNB-75 CNS | SNB-78 CNS | SW-620 colon | U251 CNS | UACC-62 melanoma | XF 498 CNS
